According to patent US7205003B2, “Method and topical formulation for treating skin conditions associated with aging” (Dermatrends, Inc., priority 2001, dated 2007):
Where two headings read alike, the source gives them in different places.

Columns and labels:
[1] = cited from earlier work
[2] = cited from earlier work; remark: listed apart in the source
[3] = in vitro keratolysis study: protein released from ground adult foot callus, BioRad protein assay
Method: An in vitro keratolysis study was performed to compare the capability of glycolic acid and a base for removing protein from stratum corneum. Adult foot callus was collected, grounded and the portion between 50–80 mesh was used. Glycolic acid and sodium hydroxide solutions (concentration =0.05 M) were prepared in distilled water. Ten mg of ground callus powder was place in a test tube. Four ml of a test chemical was added to the callus and the test tube was placed in a shaker and incubated in a water bath at 37° C. for a predetermined incubation time. The incubation time periods were 10 min., 40 min, 2 hours, 4 hours, 6 hours and 24 hours. Six samples of each base were tested a total of six times each at each of the aforementioned incubation time periods.
At the end of each incubation period, the test tube was removed from the shaker and the test tube was centrifuged. The solution was removed and filtered, and the protein in the solution was then determined using a BioRad® protein assay kit.

[4] = Example 1, 0.05 M, all time points, versus glycolic acid / water control
[5] = Example 2, 0.05 M, 10 minutes, versus glycolic acid, other bases, water control

CC(N)(CO)CO [2-amino-2-methyl-1,3-propanediol]
pH of Aqueous Solution ([1]; 0.1 m): 10.8 (0.1 m)

CC(C)(N)CO [2-amino-2-methyl-1-propanol]
pH of Aqueous Solution ([1]; 0.1 m): 11.3 (0.1 m)

N [Ammonium hydroxide]
pH of Aqueous Solution ([1]; 0.001 N): 10.27
pH of Aqueous Solution ([1]; 1 N): 11.27

N.N.O=P(O)(O)O [Ammonium phosphate, dibasic]
pH of Aqueous Solution ([1]; concentration not given): ~8

[O]=[Ca] [Calcium oxide]
solubility in water, in words [2]: Soluble in water, Form Ca(OH)2

OCCNCCO [Diethanolamine]
pH of Aqueous Solution ([1]; 0.1 N): 11.0 (0.1 N)

O=C(O)CO [Glycolic Acid, reference compound]
protein released, comparison in words [3, 4]: did not show statistical differences in comparison with water
protein released, comparison in words [3, 5]: did not show significant differences in comparison with water

[O]=[Mg] [Magnesium oxide]
pH of Aqueous Solution ([1]; saturated solution in water): 10.3 (saturated aqueous solution)

[Na+].[OH-] [NaOH, Sodium hydroxide]
amounts of protein released at 6 hours and 24 hours versus 10 minutes, 40 minutes, 2 hours and 4 hours ([3]; Example 1, 0.05 M): significantly higher
protein released, comparison in words [3, 4]: released more protein
protein released, comparison in words [3, 5]: released more protein
pH of Aqueous Solution ([1]; 0.05%): 12
pH of Aqueous Solution ([1]; 0.5%): 13
pH of Aqueous Solution ([1]; 5%): 14

O=C([O-])CC(O)(CC(=O)[O-])C(=O)[O-].[K+].[K+].[K+] [Potassium citrate]
pH of Aqueous Solution ([1]; concentration not given): ~8.5

CC(=O)[O-].[Na+] [Sodium acetate, anhydrous]
pH of Aqueous Solution ([1]; 0.1 N): ~8.9 (0.1 N)

O=C([O-])[O-].[Na+].[Na+] [Sodium carbonate anhydrous]
pH of Aqueous Solution ([1]; concentration not given): ~11.6

O=P([O-])([O-])O.[Na+].[Na+] [Sodium phosphate, dibasic, anhydrous]
pH of Aqueous Solution ([1]; 1.0% (1%)): 9.1 (1%)

O.O.O=P([O-])([O-])O.[Na+].[Na+] [Sodium phosphate, dibasic, dihydrate]
pH of Aqueous Solution ([1]; concentration not given): ~9.5

O.O.O.O.O.O.O.O.O.O.O.O.O=P([O-])([O-])O.[Na+].[Na+] [Sodium phosphate, dibasic, dodecahydrate]
pH of Aqueous Solution ([1]; concentration not given): ~9.5

O.O.O.O.O.O.O.O=P([O-])([O-])O.[Na+].[Na+] [Sodium phosphate, dibasic, heptahydrate]
pH of Aqueous Solution ([1]; concentration not given): ~9.5

O=P([O-])([O-])O.[Na+].[Na+] [Sodium phosphate, dibasic]
pH of Aqueous Solution ([1]; concentration not given): ~9.5

O.O.O.O.O.O.O.O.O.O.O.O.O=P([O-])([O-])[O-].[Na+].[Na+].[Na+] [Sodium phosphate, tribasic dodecahydrate]
pH of Aqueous Solution ([1]; 0.1%): 11.5
pH of Aqueous Solution ([1]; 0.5%): 11.7
pH of Aqueous Solution ([1]; 1.0% (1%)): 11.9
